From patent US20260184675A1, “CHIRAL ISOMERIC SULFITE COMPOUND AND APPLICATION THEREOF” (Chengdu Hanova BioSciences Co., Ltd, priority 2024, published 2026)

Assays:
eggs of Aleyrodidae = experiment: Effect on hatching of eggs of Aleyrodidae, leaf disc method; format: in vivo; conditions: 10 ppm; for Hatching rate (%), Replicate 1 / Hatching rate (%), Replicate 2 / Hatching rate (%), Replicate 3 / Number of hatched larvae 5 days after insecticide delivery, Replicate 1 / Number of hatched larvae 5 days after insecticide delivery, Replicate 2 / Number of hatched larvae 5 days after insecticide delivery, Replicate 3: Aleyrodidae eggs; for Hatching rate (%), Replicate 1 / Hatching rate (%), Replicate 2 / Hatching rate (%), Replicate 3: 5 days after delivery; for Number of hatched larvae 5 days after insecticide delivery, Replicate 1 / Number of hatched larvae 5 days after insecticide delivery, Replicate 2 / Number of hatched larvae 5 days after insecticide delivery, Replicate 3: leaf disc
Procedure: • (1) Preparation of leaf discs containing eggs: 20 female adult mites of Tetranychus cinnabarinus were transferred onto leaf discs of Vicia faba with a diameter of 2.0 cm (with wetted filter paper at the bottom), then covered it with a lidded culture dish and cultivated under moisturizing conditions, the adult mites were removed within 36 hours and microscopic examination and counting were performed on leaf discs containing eggs. • (2) Investigation of egg population base: Before pesticide soaking, a microscopic examination was conducted on the egg basic number of each leaf disc, with 2 replicates set for each treatment. • (3) Pesticide soaking treatment: The leaf butterflies loaded with mite eggs were soaked in clear water and sulfite compounds for 10 seconds, respectively, then taken out and cultivated under moisturizing conditions. Each treatment should be repeated for no less than 3 times. • (4) Cultivation and observation: The […] were cultivated under normal conditions. Five days after insecticide delivery, the hatching status of mite eggs was investigated. • Note: The temperature and humidity conditions of the constant temperature and humidity incubator after the treatment should be controlled so as to avoid excessive temperature differences, which may cause generation and dripping of condensate water in the culture dish, resulting in abnormal death of eggs due to soaking in water; it is also necessary to ensure sufficient strong ambient light, without directing irradiating the leaves. • (5) Survey of Results: The experimental materials of each treatment group were regularly hydrated and moisturized, and the hatching of eggs was observed. On the 7th day after insecticide delivery, the number of hatched eggs for each treatment was recorded, and the survey of results was recorded in the original notebook. According to the experimental requirements and characteristics of agents, the survey time can be shortened or extended.
• 1) Surveying and recording the number of hatched eggs for each treatment. • 2) Photographing and recording whether there was any pesticide damage to the leaf discs of Vicia faba. • 3) Recording the developmental status of experimental mite eggs, behavior status of nymph mites, including abnormal phenomena such as delayed or stopped development of mite eggs, difficulty in breaking hull for nymph mites, or painful struggles after hatching, etc. • (6) Calculation method: Based on the survey data, the prevention and control effect of each treatment was calculated according to the following formula, and the calculation results were kept to two decimal places.
This test adopted the method in Test Example 1 of technical section, mainly used leaf disc method to explore the inhibitory effect on hatching of eggs of Aleyrodidae by compounds 1-(S,S), 1-(S,R), 1-(R,R), 1-(R,S), 1′-(S,S), 1′-(S,R), 1′-(R,R), 1′-(R,S), compound 1, compound 1′, S-10, R-10, S-10′, R-10′, compound 10, compound 10′, compound 19-(S,S), 19-(S,R), 19-(R,R), 19-(R,S), 19′-(S,S), 19′-(S,R), 19′-(R,R), 19′-(R,S), compound 19, and compound 19′. The concentration of all compounds was 10 ppm.

[1] = system: eggs of Harmonia axyridis; experiment: Effect on hatching of eggs of Harmonia axyridis, egg card immersion; format: in vivo; conditions: 100 ppm; for Number of hatched larvae 4 days after insecticide delivery, Replicate 1 / Number of hatched larvae 4 days after insecticide delivery, Replicate 2 / Number of hatched larvae 4 days after insecticide delivery, Replicate 3: Harmonia axyridis egg cards, immersed 30 seconds; for Hatching rate (%), Replicate 1 / Hatching rate (%), Replicate 2 / Hatching rate (%), Replicate 3: Harmonia axyridis eggs, 4 days after delivery
Excerpt: The eggs of Harmonia axyridis cards (with approximately 20 eggs per card) were purchased from Henan Jiyuan Baiyun Industry Co., Ltd. in Henan Province. The number of eggs on the egg cards was counted as the basic number before insecticide delivery, and 5 cards were used as one treatment, with 3 replicates per treatment. After immersing the egg cards in a 100 ppm insecticide solution for 30 seconds, they were taken out and air dried, then cultivated under moisturizing conditions, and the […] were cultivated at 27° C. 4 days after insecticide delivery, the hatching status of eggs of Harmonia axyridis was investigated, and the prevention and control effect was calculated according to the following formula. [formula] [formula]

In the case of CC[C@@H](COc1ccc(Cl)cc1Cl)OS(=O)OCCF (stereo partly drawn) [19-(S,R)], the “inhibitory activity on the hatching of eggs of Aleyrodidae (in words)” value (shortened to “inhibitory activity … of Aleyrodidae (in words)”) (eggs of Aleyrodidae) was “strong inhibitory activities”, the “Hatching rate (%), Replicate 1” value (eggs of Aleyrodidae) was 0.00% and the “Hatching rate (%), Replicate 2” value (eggs of Aleyrodidae) was 0.00%. The “Hatching rate (%), Replicate 3” value (eggs of Aleyrodidae) was 0.00%, the “Number of hatched larvae 5 days after insecticide delivery, Replicate 1” value (shortened to “Number of hatched larvae 5 days … Replicate 1”) (eggs of Aleyrodidae) was 0 and the “Number of hatched larvae 5 days after insecticide delivery, Replicate 2” value (from here on “Number of hatched larvae 5 days … Replicate 2”) (eggs of Aleyrodidae) was 0. The “Number of hatched larvae 5 days after insecticide delivery, Replicate 3” value (“Number of hatched larvae 5 days … Replicate 3” for short) (eggs of Aleyrodidae) was 0, the “inhibitory activity on the hatching of eggs of Harmonia axyridis (in words)” value [1] was “strong inhibitory activities” and the “Number of hatched larvae 4 days after insecticide delivery, Replicate 1” value (“Number of hatched larvae 4 days … Replicate 1” for short) [1] was 0. For the same compound, the “Number of hatched larvae 4 days after insecticide delivery, Replicate 2” value (“Number of hatched larvae 4 days … Replicate 2” for short) [1] was 0, the “Number of hatched larvae 4 days after insecticide delivery, Replicate 3” value (“Number of hatched larvae 4 days … Replicate 3” for short) [1] was 0 and the “Hatching rate (%), Replicate 1” value [1] was 0.00%. The “Hatching rate (%), Replicate 2” value [1] was 0.00% and the “Hatching rate (%), Replicate 3” value [1] was 0.00%.

For CC(C)(COc1ccc(Cl)cc1Cl)OS(=O)OCCF (stereo not shown) [Compound S-10], the “inhibitory activity … of Aleyrodidae (in words)” value (eggs of Aleyrodidae) was “strong inhibitory activities”, the “Hatching rate (%), Replicate 1” value (eggs of Aleyrodidae) was 0.00% and the “Hatching rate (%), Replicate 2” value (eggs of Aleyrodidae) was 0.00%. The “Hatching rate (%), Replicate 3” value (eggs of Aleyrodidae) was 0.00%, the “Number of hatched larvae 5 days … Replicate 1” value (eggs of Aleyrodidae) was 0 and the “Number of hatched larvae 5 days … Replicate 2” value (eggs of Aleyrodidae) was 0. The “Number of hatched larvae 5 days … Replicate 3” value (eggs of Aleyrodidae) was 0, the “inhibitory activity on the hatching of eggs of Harmonia axyridis (in words)” value [1] was “strong inhibitory activities” and the “Number of hatched larvae 4 days … Replicate 1” value [1] was 0. The “Number of hatched larvae 4 days … Replicate 2” value [1] was 0, the “Number of hatched larvae 4 days … Replicate 3” value [1] was 0 and the “Hatching rate (%), Replicate 1” value [1] was 0.00%. For the same compound, the “Hatching rate (%), Replicate 2” value [1] was 0.00% and the “Hatching rate (%), Replicate 3” value [1] was 0.00%.

For C[C@H](COS(=O)OCCF)Oc1ccc(Cl)cc1Cl (stereo partly drawn) [1-(R,R)], the “inhibitory activity … of Aleyrodidae (in words)” value (eggs of Aleyrodidae) was “strong inhibitory activities”, the “Hatching rate (%), Replicate 1” value (eggs of Aleyrodidae; listed as 1-(R, R)) was 0.00% and the “Hatching rate (%), Replicate 2” value (eggs of Aleyrodidae; listed as 1-(R, R)) was 0.00%. The “Hatching rate (%), Replicate 3” value (eggs of Aleyrodidae; listed as 1-(R, R)) was 0.00%, the “Number of hatched larvae 5 days … Replicate 1” value (eggs of Aleyrodidae; listed as 1-(R, R)) was 0 and the “Number of hatched larvae 5 days … Replicate 2” value (eggs of Aleyrodidae; listed as 1-(R, R)) was 0. The “Number of hatched larvae 5 days … Replicate 3” value (eggs of Aleyrodidae; listed as 1-(R, R)) was 0, the “inhibitory activity on the hatching of eggs of Harmonia axyridis (in words)” value [1] was “strong inhibitory activities” and the “Number of hatched larvae 4 days … Replicate 1” value ([1]; listed as 1-(R, R)) was 0. The “Number of hatched larvae 4 days … Replicate 2” value ([1]; listed as 1-(R, R)) was 0, the “Number of hatched larvae 4 days … Replicate 3” value ([1]; listed as 1-(R, R)) was 0 and the “Hatching rate (%), Replicate 1” value ([1]; listed as 1-(R, R)) was 0.00%. The “Hatching rate (%), Replicate 2” value ([1]; listed as 1-(R, R)) was 0.00% and the “Hatching rate (%), Replicate 3” value ([1]; listed as 1-(R, R)) was 0.00%.

For CCC(COc1ccc(Cl)cc1Cl)OS(=O)OCCF [19-(R,R)], the “Hatching rate (%), Replicate 1” value (eggs of Aleyrodidae; listed as 19-(R, R)) was 11.96%, the “Hatching rate (%), Replicate 2” value (eggs of Aleyrodidae; listed as 19-(R, R)) was 10.20% and the “Hatching rate (%), Replicate 3” value (eggs of Aleyrodidae; listed as 19-(R, R)) was 11.20%. For the same compound, the “Number of hatched larvae 5 days … Replicate 1” value (eggs of Aleyrodidae; listed as 19-(R, R)) was 11, the “Number of hatched larvae 5 days … Replicate 2” value (eggs of Aleyrodidae; listed as 19-(R, R)) was 10 and the “Number of hatched larvae 5 days … Replicate 3” value (eggs of Aleyrodidae; listed as 19-(R, R)) was 14. The “Number of hatched larvae 4 days … Replicate 1” value ([1]; listed as 19-(R, R)) was 14, the “Number of hatched larvae 4 days … Replicate 2” value ([1]; listed as 19-(R, R)) was 15 and the “Number of hatched larvae 4 days … Replicate 3” value ([1]; listed as 19-(R, R)) was 14. For the same compound, the “Hatching rate (%), Replicate 1” value ([1]; listed as 19-(R, R)) was 14.43%, the “Hatching rate (%), Replicate 2” value ([1]; listed as 19-(R, R)) was 14.42% and the “Hatching rate (%), Replicate 3” value ([1]; listed as 19-(R, R)) was 13.73%.

With CCC(COS(=O)OCCF)Oc1ccc(Cl)cc1Cl [19′-(R,R)] the “inhibitory activity … of Aleyrodidae (in words)” value (eggs of Aleyrodidae) was “strong inhibitory activities”, the “Hatching rate (%), Replicate 1” value (eggs of Aleyrodidae) was 0.00% and the “Hatching rate (%), Replicate 2” value (eggs of Aleyrodidae) was 0.00%. For the same compound, the “Hatching rate (%), Replicate 3” value (eggs of Aleyrodidae) was 0.00%, the “Number of hatched larvae 5 days … Replicate 1” value (eggs of Aleyrodidae) was 0 and the “Number of hatched larvae 5 days … Replicate 2” value (eggs of Aleyrodidae) was 0. For the same compound, the “Number of hatched larvae 5 days … Replicate 3” value (eggs of Aleyrodidae) was 0, the “inhibitory activity on the hatching of eggs of Harmonia axyridis (in words)” value [1] was “strong inhibitory activities” and the “Number of hatched larvae 4 days … Replicate 1” value ([1]; listed as 19′-(R, R)) was 0. For the same compound, the “Number of hatched larvae 4 days … Replicate 2” value ([1]; listed as 19′-(R, R)) was 0, the “Number of hatched larvae 4 days … Replicate 3” value ([1]; listed as 19′-(R, R)) was 0 and the “Hatching rate (%), Replicate 1” value ([1]; listed as 19′-(R, R)) was 0.00%. The “Hatching rate (%), Replicate 2” value ([1]; listed as 19′-(R, R)) was 0.00% and the “Hatching rate (%), Replicate 3” value ([1]; listed as 19′-(R, R)) was 0.00%.

With CC(C)(COS(=O)OCCF)Oc1ccc(Cl)cc1Cl (stereo not shown) [S-10′] the “inhibitory activity … of Aleyrodidae (in words)” value (eggs of Aleyrodidae) was “strong inhibitory activities”, the “Hatching rate (%), Replicate 1” value (eggs of Aleyrodidae) was 0.00% and the “Hatching rate (%), Replicate 2” value (eggs of Aleyrodidae) was 0.00%. For the same compound, the “Hatching rate (%), Replicate 3” value (eggs of Aleyrodidae) was 0.00%, the “Number of hatched larvae 5 days … Replicate 1” value (eggs of Aleyrodidae) was 0 and the “Number of hatched larvae 5 days … Replicate 2” value (eggs of Aleyrodidae) was 0. For the same compound, the “Number of hatched larvae 5 days … Replicate 3” value (eggs of Aleyrodidae) was 0, the “inhibitory activity on the hatching of eggs of Harmonia axyridis (in words)” value [1] was “strong inhibitory activities” and the “Number of hatched larvae 4 days … Replicate 1” value [1] was 0. The “Number of hatched larvae 4 days … Replicate 2” value [1] was 0, the “Number of hatched larvae 4 days … Replicate 3” value [1] was 0 and the “Hatching rate (%), Replicate 1” value [1] was 0.00%. For the same compound, the “Hatching rate (%), Replicate 2” value [1] was 0.00% and the “Hatching rate (%), Replicate 3” value [1] was 0.00%.
